Data as given in patent US9545418B2, “ON01910.Na enhances chemotherapeutic agent activity in drug-resistant tumors” (THE JOHNS HOPKINS UNIVERSITY, priority 2008, dated 2017).

Experiments:
[1] = tested on: Tumor 41 (pancreatic tumor); assay: Direct pancreatic cancer derived xenograft, Tumor 41; type: in vivo, mice; details: Gemcitabine 100 mg/kg 2 times/week for 4 weeks, ON-01910.Na 250 mg/kg/day for 4 weeks
Text: (§1) Resected pancreatic adenocarcinomas are routinely implanted in nude mice at the Johns Hopkins Medical Institutions as a method to obtain enriched populations of neoplastic cells under an IRB-approved protocol from residual pancreatic cancer tumors. Briefly, tumor specimens from Whipple resection specimens were divided into 2-3 mm^3 pieces in antibiotic-containing RPMI media. Pieces of non-necrotic tissue were selected and immersed in Matrigel. Under anesthesia with isofluorane, tumors were implanted into five-to-six week-old female athymic (nu/nu) mice purchased from Harlan (Harlan Laboratories, Washington, D.C.). […] Tumor size was determined using calipers every four days for the course of the experiment. Relative tumor growth inhibition (TGI) was calculated as TGI=(Ti−T0/Ci−C0), where Ti and Ci represent tumor size in the treated and control group at 28-day, respectively; […] Experiments were terminated on day 28. […] Pancreatic tumors were implanted in mice as detailed above. Mice were treated with gemcitabine alone, ON-01910-Na alone, or a combination thereof as indicated. Tumor size was measured at four day intervals.

[2] = tested on: Tumor JH03 (pancreatic tumor); assay: Direct pancreatic cancer derived xenograft, Tumor JH03; type: in vivo, mice; details: Gemcitabine 100 mg/kg 2 times/week for 4 weeks, ON-01910.Na 250 mg/kg/day for 4 weeks
Text: as §1

[3] = tested on: Tumor 28 (pancreatic tumor); assay: Direct pancreatic cancer derived xenograft, Tumor 28; type: in vivo, mice; details: Gemcitabine 100 mg/kg 2 times/week for 4 weeks, ON-01910.Na 250 mg/kg/day for 4 weeks
Text: as §1

[4] = tested on: Plk1; assay: Plk1 expression analysis by RT-PCR in xenograft tumors harvested on day 28; type: in vivo, mice; details: JH03 tumor, day 28, compared with the other tumors
Text: Total RNA was extracted from cell pellets (and tumors) using the RNeasy™ Mini Kit (Qiagen, Valencia, Calif.). cDNA was synthesized using iScript cDNA synthesis kit (Bio-Rad, Hercules, Calif.) following the manufacturer's instructions. Relative quantification of Plk1 and ubiquitin C (UBC, used as housekeeper gene) mRNA was achieved using an iCycler iQ real-time PCR detection system (Bio-Rad) using ABI Taqman probes (Foster City, Calif.). The experiments were repeated twice and samples were run in quadruplicate.
On day 28, animals were euthanized and tumors were removed for Plk1 expression analysis by RT-PCR using standard protocols. Plk1 expression levels were expressed relative to expression in non-drug treated control.
On day 28, tumors were harvested and analyzed for Plk1 expression (FIG. 2C).

[5] = tested on: Solid tumors including prostate, breast, and lung; details: oral; cited from earlier work

## Nc1ccn(C2OC(CO)C(O)C2(F)F)c(=O)n1 (centres unmarked) [gemcitabine, 4-amino-1-[3,3-difluoro-4-hydroxy-5-(hydroxymethyl)tetrahydrofuran-2-yl]-1H-pyrimidin-2-one]
[1]
  susceptibility of tumor to treatment (tumor growth): susceptible
[2]
  susceptibility of tumor to treatment (tumor growth): susceptible
[3]
  susceptibility of tumor to treatment (tumor growth): resistant
[4]
  Plk1 expression in tumor after exposure: lowest expression of Plk1

## CCCCCCCCCCCCCCCC(=O)Nc1ccn([C@@H]2O[C@H](CO)[C@@H](O)[C@@H]2C#N)c(=O)n1 [sapacitabine]
[5]
  maximum tolerated dose: dose 160 mg/m^2/day
